Results as given in article PMC8213057, “Targeting ALK2: An Open Science Approach to Developing Therapeutics for the Treatment of Diffuse Intrinsic Pontine Glioma” (Journal of Medicinal Chemistry, 2020).

Assays:
EPHA5 = EPHA5 (Homo sapiens, UniProt P54756); settings: 1 μM; Run 1, Run 2
EPHA4 = EPHA4 (Homo sapiens, UniProt P54764); assay: biochemical; settings: read-out: % enzyme activity, 1 μM; Run 1, Run 2
SRPK1 = SRPK1 (Homo sapiens, UniProt Q96SB4); settings: 1 μM; Run 1, Run 2
PKG1a = biological target: T1, PKG1a (Homo sapiens, UniProt Q13976); assay: biochemical; settings: read-out: % enzyme activity, 1 μM; Run 1, Run 2
T1 sequence (Q13976 1-671): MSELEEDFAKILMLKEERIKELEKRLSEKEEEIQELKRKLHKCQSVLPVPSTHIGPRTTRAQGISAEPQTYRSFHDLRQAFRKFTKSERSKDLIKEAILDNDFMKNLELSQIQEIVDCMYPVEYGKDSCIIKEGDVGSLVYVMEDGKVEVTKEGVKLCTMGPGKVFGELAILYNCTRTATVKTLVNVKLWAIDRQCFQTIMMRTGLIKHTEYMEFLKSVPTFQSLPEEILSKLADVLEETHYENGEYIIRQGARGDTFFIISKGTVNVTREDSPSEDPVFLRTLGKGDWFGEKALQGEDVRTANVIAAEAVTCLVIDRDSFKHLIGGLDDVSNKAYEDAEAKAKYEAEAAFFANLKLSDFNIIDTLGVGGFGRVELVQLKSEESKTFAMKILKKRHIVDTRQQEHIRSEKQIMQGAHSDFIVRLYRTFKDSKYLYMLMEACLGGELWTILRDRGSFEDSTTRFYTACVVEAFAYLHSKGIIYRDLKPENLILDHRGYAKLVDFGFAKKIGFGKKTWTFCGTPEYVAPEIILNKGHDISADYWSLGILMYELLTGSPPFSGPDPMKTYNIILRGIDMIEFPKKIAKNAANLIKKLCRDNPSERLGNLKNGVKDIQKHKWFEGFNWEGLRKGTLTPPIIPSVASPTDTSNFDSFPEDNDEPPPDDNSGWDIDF

PKCmu/PRKD1 = biological target: T2, PKCmu/PRKD1 (Homo sapiens, UniProt Q15139); settings: 1 μM; Run 1, Run 2
T2 sequence (Q15139 1-912): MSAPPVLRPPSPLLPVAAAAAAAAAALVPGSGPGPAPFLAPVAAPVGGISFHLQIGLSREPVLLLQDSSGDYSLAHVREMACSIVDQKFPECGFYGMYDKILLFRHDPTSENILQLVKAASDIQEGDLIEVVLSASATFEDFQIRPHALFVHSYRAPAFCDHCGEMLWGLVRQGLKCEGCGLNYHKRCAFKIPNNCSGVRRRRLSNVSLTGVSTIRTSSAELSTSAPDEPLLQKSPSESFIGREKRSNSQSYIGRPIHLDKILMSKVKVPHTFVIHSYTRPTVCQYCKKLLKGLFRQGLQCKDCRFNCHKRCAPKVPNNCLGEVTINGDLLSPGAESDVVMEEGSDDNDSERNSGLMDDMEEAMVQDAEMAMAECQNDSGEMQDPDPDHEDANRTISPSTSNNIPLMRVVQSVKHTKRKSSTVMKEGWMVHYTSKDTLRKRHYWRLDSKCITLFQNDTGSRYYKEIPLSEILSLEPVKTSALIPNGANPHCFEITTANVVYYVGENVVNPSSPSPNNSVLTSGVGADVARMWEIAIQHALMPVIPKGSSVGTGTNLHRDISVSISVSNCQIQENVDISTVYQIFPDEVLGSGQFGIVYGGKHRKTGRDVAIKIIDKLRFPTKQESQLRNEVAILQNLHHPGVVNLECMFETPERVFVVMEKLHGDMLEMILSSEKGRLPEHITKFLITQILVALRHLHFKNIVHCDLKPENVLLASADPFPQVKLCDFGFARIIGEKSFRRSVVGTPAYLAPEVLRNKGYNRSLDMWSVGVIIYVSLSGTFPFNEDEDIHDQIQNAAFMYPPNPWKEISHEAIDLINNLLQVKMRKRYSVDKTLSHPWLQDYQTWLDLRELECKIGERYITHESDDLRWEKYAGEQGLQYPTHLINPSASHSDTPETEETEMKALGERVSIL

CDK9/cyclin T1 = CDK9/cyclin T1 (Homo sapiens, UniProt P50750); settings: 1 μM; Run 1, Run 2
Chain of CDK9/cyclin T1 (P50750 whole entry): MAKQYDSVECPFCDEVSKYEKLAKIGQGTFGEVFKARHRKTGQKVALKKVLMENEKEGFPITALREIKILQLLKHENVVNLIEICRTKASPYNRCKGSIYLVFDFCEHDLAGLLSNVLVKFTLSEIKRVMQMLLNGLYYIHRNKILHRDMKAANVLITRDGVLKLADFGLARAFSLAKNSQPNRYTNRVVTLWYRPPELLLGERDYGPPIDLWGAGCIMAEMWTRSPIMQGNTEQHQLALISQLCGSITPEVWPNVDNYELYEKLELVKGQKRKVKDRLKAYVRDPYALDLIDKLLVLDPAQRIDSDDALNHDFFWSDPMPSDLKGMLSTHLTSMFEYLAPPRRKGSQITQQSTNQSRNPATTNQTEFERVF
Chain of CDK9/cyclin T1 (O60563 whole entry partner): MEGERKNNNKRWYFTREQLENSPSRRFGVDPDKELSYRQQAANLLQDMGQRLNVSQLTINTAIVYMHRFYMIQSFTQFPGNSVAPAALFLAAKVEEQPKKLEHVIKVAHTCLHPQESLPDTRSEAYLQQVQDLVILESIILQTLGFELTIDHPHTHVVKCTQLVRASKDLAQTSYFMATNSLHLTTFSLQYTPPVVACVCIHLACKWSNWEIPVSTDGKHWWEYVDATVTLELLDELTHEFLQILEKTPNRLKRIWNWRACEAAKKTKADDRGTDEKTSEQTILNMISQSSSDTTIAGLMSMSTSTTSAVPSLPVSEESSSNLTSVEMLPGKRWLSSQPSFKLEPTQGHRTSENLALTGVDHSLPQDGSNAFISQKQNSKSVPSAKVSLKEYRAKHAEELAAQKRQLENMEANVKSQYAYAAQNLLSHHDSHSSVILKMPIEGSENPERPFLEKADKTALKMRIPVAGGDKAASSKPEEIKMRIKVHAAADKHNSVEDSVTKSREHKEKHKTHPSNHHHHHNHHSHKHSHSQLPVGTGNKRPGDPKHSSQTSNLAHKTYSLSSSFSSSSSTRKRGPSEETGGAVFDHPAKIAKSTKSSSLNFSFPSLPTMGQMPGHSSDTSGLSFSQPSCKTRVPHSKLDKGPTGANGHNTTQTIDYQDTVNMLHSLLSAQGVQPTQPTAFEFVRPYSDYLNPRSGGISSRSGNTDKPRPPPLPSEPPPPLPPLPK

AXL = biological target: T3, AXL (Homo sapiens, UniProt P30530); assay: biochemical; settings: read-out: % enzyme activity, 1 μM; Run 1, Run 2
T3 sequence (P30530 26-894): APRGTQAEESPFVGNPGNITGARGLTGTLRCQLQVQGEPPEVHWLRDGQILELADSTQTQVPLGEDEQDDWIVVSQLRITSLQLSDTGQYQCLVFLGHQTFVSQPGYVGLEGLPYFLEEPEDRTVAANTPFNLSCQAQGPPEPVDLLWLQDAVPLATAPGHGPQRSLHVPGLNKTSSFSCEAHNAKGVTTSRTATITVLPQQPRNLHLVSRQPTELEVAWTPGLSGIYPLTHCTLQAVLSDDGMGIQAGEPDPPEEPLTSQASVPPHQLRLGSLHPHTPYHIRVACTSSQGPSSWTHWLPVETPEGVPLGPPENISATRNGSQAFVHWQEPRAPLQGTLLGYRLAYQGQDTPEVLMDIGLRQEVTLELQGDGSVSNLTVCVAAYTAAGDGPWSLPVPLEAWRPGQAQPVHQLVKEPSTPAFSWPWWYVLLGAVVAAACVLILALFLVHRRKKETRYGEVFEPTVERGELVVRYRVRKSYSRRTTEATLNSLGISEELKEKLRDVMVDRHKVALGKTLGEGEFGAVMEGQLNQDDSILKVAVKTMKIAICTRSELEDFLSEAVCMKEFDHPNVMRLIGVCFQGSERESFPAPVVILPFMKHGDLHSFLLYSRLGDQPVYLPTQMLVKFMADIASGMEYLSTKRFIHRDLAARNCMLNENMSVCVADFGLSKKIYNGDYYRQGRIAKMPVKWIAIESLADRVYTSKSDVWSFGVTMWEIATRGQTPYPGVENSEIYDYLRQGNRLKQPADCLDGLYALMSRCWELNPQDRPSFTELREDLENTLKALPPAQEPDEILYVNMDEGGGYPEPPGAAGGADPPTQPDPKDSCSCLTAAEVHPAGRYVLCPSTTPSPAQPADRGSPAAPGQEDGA

CHK2 = CHK2 (Homo sapiens, UniProt O96017); assay: biochemical; settings: read-out: % enzyme activity, 1 μM; Run 1, Run 2
Chain of CHK2 (O96017 whole entry): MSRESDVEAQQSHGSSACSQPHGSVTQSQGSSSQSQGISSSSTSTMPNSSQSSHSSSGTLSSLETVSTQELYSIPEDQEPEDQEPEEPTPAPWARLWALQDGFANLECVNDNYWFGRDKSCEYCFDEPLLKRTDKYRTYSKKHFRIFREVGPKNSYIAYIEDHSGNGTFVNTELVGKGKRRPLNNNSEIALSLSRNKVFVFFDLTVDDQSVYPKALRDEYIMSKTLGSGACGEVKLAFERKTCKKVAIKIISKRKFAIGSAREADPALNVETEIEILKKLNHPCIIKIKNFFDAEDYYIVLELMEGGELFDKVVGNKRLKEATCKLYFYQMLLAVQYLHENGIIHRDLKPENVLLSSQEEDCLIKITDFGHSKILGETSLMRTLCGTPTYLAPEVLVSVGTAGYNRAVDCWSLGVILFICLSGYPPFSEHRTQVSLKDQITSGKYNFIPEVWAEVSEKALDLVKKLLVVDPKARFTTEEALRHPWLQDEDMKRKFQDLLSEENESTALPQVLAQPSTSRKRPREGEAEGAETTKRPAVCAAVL

c-Kit = c-Kit (Homo sapiens, UniProt P10721); settings: 1 μM; Run 1, Run 2
Chain of c-Kit (P10721 26-976): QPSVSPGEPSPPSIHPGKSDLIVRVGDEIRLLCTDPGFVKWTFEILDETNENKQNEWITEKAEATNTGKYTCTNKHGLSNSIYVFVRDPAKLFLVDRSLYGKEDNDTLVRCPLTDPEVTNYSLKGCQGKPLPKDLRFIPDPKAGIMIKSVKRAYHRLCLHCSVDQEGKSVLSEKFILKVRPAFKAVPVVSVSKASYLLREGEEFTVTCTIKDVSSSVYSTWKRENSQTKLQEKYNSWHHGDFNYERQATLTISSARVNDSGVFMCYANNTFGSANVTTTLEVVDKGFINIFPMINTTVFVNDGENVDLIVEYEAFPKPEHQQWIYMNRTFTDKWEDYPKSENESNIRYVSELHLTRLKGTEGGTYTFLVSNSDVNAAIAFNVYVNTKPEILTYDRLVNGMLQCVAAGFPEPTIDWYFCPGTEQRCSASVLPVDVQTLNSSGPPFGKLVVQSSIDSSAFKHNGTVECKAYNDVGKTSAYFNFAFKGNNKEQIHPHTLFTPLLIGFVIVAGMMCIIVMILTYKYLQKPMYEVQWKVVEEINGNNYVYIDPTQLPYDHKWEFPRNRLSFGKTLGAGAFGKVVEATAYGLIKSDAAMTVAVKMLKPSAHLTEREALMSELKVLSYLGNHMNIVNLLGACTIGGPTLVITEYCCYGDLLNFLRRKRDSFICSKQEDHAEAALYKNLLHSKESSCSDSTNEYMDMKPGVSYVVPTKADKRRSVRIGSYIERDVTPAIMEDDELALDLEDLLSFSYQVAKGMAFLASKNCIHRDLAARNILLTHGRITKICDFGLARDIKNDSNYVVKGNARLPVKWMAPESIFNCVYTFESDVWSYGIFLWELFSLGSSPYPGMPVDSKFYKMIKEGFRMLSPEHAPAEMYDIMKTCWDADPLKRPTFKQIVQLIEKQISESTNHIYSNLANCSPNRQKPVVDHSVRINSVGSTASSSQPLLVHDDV

Chain of EPHA5 (P54756 25-1037): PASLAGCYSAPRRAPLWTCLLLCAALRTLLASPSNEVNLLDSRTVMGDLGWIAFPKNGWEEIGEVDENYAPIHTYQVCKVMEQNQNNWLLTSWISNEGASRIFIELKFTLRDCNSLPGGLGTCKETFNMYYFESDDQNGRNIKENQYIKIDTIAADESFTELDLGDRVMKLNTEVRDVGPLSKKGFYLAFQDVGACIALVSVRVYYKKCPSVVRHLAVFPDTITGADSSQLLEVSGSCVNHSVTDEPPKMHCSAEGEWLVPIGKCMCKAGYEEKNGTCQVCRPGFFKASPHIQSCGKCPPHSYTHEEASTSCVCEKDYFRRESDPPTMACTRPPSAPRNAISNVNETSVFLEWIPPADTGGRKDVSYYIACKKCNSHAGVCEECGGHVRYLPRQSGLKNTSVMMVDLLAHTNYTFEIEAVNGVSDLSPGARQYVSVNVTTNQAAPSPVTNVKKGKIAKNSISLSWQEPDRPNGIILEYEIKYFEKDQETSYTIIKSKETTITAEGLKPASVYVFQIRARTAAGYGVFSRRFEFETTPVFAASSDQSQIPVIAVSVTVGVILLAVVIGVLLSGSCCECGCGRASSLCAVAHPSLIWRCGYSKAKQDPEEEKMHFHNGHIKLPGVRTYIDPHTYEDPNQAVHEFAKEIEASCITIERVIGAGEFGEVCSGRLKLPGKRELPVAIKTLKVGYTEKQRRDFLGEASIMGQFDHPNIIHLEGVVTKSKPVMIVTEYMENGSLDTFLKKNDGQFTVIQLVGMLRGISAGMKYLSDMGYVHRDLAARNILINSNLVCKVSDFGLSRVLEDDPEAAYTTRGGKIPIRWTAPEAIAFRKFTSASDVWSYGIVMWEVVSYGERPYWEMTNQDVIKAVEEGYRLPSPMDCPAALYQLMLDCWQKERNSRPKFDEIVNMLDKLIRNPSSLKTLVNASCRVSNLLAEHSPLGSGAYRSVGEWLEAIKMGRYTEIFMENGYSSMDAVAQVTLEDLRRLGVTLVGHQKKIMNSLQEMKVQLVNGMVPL
Chain of EPHA4 (P54764 20-986): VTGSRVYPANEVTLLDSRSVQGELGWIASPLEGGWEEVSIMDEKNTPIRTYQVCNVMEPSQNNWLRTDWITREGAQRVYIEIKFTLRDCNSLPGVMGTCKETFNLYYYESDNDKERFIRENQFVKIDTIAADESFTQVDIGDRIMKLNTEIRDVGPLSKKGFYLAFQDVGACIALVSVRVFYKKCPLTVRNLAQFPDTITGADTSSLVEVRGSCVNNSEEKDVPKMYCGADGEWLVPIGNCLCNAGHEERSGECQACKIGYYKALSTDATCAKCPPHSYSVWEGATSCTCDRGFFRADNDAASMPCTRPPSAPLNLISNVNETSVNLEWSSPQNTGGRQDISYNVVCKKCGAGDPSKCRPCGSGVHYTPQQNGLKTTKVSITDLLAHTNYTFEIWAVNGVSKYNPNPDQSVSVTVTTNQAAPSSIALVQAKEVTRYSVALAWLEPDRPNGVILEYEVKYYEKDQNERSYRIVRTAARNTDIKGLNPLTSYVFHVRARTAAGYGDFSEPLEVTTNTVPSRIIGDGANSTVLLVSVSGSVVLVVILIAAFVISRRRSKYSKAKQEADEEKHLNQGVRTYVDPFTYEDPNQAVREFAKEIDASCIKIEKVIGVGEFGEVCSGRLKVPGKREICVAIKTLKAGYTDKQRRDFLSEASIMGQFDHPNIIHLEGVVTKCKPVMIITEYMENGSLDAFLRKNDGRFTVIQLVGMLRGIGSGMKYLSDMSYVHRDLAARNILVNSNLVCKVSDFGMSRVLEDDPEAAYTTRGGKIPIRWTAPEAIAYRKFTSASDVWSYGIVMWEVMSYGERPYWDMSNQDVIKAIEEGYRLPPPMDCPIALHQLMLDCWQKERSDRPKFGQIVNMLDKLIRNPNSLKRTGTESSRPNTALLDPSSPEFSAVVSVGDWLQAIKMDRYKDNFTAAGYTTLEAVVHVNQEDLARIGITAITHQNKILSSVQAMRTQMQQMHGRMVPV

Compound	% enzyme activity (EPHA5) [%]	remaining activity at 1 µM (EPHA4) [%]	% enzyme activity (SRPK1) [%]	remaining activity at 1 µM (PKG1a) [%]	% enzyme activity (PKCmu/PRKD1) [%]	% enzyme activity (CDK9/cyclin T1) [%]	remaining activity at 1 µM (AXL) [%]	remaining activity at 1 µM (CHK2) [%]	% enzyme activity (c-Kit) [%]
COc1cc(-c2cncc(-c3ccc(N4CCN(C)CC4)cc3)c2C)cc(F)c1C(N)=O [Compound 26a, 2-Fluoro-6-methoxy-4-(4-methyl-5-(4-(4-methylpiperazin-1-yl)phenyl)pyridin-3-yl)benzamide]	90.37	95.3	105.40	97.9	88.26	90.82	81.8	99.7	74.03
COc1cc(-c2cncc(-c3ccc(N4C[C@@H](C)N(C)[C@@H](C)C4)cc3)c2C)cc(F)c1C(N)=O [Compound 26c, 2-Fluoro-6-methoxy-4-(4-methyl-5-(4-((3R,5S)-3,4,5-trimethylpiperazin-1-yl)phenyl)pyridin-3-yl)benzamide]	90.66	99.3	81.70	102	95.09	96.85	91.3	102	74.89
